Assays:
[1] = target: Tyrosine-protein kinase JAK2 (Homo sapiens, UniProt O60674); assay: (§1) In Vitro Assay: NCEs were screened using in vitro JAK (1, 2 and 3) kinase assay on ADP Glo platform (Promega). Fixed amount of recombinant purified human JAK (25 ng of JAK1 and 10 ng of JAK2 and JAK3 per reaction, from Life Technologies Ltd) were incubated with increasing concentration of NCEs in 1× kinase reaction buffer (40 mM Tris-Cl, pH7.5, 20 mM MgCl2, 0.1 mg/ml BSA and 50 μM DTT). Enzymatic reaction was initiated by adding a substrate cocktail containing 50 μM of ATP (final concentration) and 5 μg for JAK1 and 2.5 μg for JAK2 and JAK3 of polyGln4Tyr1 (Signal Chem) in total 25 μl of reaction in 96 well plate. The reaction was incubated at room temperature for 1 hr.After 1 hr of incubation equal volume (25 μl per reaction) of ADP Glo was added and incubated at room temperature for 40 min.This was followed by addition of kinase detection reagent (50 μl per reaction) and incubation at room temperature for 30 min. Finally, plate was read for luminescence at an integration time of 500 millisecond per well.
[2] = target: Tyrosine-protein kinase JAK1 (Homo sapiens, UniProt P23458); assay: as §1
[3] = target: T1, Tyrosine-protein kinase JAK3 (Homo sapiens, UniProt P52333); assay: as §1
T1 sequence (P52333 whole entry): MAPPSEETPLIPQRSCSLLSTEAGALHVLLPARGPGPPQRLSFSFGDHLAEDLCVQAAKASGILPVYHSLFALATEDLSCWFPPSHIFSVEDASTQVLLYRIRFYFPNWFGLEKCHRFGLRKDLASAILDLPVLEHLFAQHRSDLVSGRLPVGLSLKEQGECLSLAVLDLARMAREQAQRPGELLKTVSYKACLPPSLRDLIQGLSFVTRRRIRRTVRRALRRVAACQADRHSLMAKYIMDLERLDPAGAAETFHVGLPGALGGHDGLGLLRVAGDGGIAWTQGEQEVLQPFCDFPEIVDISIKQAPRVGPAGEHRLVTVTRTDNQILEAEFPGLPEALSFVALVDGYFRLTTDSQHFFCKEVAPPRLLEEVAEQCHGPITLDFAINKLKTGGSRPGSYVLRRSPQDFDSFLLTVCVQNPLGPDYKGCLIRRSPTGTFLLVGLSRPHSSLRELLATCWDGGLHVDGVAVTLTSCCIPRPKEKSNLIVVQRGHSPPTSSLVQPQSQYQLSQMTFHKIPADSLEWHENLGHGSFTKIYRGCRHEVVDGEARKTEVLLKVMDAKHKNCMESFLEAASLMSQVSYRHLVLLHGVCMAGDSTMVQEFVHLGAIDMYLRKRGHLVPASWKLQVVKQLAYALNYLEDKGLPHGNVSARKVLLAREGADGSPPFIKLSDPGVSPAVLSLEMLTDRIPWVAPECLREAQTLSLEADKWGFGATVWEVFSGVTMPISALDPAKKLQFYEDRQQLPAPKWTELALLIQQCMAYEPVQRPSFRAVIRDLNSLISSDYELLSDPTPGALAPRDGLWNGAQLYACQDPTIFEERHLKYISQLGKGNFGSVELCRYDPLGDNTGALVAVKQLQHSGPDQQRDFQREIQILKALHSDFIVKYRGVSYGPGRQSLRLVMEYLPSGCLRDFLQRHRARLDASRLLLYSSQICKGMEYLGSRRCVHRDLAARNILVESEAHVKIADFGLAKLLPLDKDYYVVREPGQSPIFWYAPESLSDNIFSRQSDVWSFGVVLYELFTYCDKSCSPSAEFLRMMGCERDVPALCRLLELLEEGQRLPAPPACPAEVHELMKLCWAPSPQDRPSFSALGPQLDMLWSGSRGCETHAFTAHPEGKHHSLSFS

Sequence of Tyrosine-protein kinase JAK2 (O60674 whole entry): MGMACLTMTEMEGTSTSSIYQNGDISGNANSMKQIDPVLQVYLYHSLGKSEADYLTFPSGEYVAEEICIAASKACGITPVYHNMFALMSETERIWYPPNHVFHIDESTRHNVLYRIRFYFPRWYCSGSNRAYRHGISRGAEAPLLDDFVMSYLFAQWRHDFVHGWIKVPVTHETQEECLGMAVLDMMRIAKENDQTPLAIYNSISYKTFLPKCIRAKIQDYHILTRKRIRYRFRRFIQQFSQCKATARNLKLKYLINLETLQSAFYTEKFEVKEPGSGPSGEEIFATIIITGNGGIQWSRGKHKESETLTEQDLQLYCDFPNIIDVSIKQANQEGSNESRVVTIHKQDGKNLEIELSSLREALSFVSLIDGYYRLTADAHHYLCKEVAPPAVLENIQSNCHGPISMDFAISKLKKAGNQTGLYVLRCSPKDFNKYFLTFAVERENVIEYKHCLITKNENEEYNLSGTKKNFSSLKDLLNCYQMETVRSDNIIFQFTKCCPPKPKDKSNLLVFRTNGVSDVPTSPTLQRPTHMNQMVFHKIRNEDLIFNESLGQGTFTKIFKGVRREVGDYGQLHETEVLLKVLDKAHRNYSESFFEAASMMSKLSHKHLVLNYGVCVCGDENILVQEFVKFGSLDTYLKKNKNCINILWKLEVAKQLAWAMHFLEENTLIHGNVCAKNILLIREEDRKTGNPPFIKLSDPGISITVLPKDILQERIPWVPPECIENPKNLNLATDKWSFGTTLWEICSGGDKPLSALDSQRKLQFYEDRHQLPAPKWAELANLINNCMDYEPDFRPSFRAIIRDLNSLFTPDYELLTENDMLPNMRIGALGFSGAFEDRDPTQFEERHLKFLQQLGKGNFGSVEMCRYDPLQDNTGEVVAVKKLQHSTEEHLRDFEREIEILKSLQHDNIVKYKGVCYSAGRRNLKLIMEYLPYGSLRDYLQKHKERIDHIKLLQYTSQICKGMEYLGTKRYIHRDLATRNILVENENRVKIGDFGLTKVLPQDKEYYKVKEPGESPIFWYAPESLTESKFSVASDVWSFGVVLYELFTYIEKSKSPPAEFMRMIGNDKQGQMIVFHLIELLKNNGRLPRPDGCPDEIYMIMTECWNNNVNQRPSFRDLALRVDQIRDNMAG
Sequence of Tyrosine-protein kinase JAK1 (P23458 whole entry): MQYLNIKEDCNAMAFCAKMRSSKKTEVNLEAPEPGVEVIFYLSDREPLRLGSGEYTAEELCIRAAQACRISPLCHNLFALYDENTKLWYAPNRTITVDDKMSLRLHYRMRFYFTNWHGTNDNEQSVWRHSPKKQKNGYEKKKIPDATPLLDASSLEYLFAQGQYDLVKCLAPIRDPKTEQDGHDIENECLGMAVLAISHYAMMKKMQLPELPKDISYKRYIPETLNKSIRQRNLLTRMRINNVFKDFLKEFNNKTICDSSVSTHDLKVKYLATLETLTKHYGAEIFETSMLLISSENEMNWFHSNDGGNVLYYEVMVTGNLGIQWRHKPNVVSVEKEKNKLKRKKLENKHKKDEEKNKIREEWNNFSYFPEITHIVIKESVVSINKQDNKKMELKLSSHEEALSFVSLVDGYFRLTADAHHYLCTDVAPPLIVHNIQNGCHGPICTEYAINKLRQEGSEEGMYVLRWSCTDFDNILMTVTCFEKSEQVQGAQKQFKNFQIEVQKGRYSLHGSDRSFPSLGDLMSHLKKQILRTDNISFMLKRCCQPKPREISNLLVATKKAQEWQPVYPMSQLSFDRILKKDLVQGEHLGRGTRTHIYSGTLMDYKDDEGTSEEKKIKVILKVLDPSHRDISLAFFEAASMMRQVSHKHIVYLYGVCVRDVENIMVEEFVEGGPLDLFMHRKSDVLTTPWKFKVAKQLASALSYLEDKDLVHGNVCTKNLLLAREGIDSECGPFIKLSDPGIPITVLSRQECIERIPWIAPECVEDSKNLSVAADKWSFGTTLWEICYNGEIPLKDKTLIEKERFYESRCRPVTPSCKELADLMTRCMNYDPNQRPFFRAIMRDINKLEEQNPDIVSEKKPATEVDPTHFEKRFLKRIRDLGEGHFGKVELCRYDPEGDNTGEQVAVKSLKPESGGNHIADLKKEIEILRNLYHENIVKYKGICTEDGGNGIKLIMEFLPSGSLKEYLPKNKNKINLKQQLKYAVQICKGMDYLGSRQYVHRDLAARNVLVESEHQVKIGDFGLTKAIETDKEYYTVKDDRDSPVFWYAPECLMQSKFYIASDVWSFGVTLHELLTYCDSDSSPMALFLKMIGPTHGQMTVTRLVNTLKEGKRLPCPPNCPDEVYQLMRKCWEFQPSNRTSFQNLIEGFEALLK

IC50 [1] [nM] | IC50 [2] [nM] | IC50 [3] [nM] | Compound
6.6 | 11.7 | 62.3 | N#CCNC(=O)c1ccc(-c2ccnc(Nc3ccc(N4CCC(N5CCOCC5)CC4)cc3)n2)cc1
4.9 | 6.7 | 16.6 | N#CCNC(=O)c1ccc(-c2nc(Nc3ccc(N4CCC(N5CCOCC5)CC4)cc3)ncc2F)cc1
20 | 13 | 124 | N#CCNC(=O)c1ccc(-c2ccnc(Nc3ccc(N4CCC(C5=NCCN5)CC4)cc3)n2)cc1
